Assay results from ChEMBL document CHEMBL3991601, “The target landscape of clinical kinase drugs” (Science, 2017).
Active and inactive are the calls of the source.

Key:
[1] = biological target: Protein-tyrosine kinase 2-beta (Homo sapiens, UniProt Q14289)
[2] = biological target: T1, Peroxisomal acyl-coenzyme A oxidase 3 (Homo sapiens, UniProt O15254)
T1 sequence (O15254 whole entry): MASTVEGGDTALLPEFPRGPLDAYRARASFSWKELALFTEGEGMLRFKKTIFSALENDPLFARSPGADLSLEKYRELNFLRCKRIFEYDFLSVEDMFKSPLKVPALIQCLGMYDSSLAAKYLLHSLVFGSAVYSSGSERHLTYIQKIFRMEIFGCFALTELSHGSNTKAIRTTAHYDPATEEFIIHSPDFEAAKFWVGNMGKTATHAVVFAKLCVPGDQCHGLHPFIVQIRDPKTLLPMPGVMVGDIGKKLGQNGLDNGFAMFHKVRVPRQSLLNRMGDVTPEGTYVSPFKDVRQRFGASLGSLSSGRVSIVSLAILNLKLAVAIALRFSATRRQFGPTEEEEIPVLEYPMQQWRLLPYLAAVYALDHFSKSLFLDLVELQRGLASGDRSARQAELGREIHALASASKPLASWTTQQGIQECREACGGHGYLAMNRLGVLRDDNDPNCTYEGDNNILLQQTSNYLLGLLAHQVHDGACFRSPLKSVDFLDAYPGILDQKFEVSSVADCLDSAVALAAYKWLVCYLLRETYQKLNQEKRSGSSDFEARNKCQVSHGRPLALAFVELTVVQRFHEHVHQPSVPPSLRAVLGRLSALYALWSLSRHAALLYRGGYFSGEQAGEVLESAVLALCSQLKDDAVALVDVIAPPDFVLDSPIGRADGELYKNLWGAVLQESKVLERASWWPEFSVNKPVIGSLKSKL

[3] = biological target: Elongation factor Tu, mitochondrial (Homo sapiens, UniProt P49411)
Scaffold protein ILK = biological target: T2, Scaffold protein ILK (Homo sapiens, UniProt Q13418)
T2 sequence (Q13418 whole entry): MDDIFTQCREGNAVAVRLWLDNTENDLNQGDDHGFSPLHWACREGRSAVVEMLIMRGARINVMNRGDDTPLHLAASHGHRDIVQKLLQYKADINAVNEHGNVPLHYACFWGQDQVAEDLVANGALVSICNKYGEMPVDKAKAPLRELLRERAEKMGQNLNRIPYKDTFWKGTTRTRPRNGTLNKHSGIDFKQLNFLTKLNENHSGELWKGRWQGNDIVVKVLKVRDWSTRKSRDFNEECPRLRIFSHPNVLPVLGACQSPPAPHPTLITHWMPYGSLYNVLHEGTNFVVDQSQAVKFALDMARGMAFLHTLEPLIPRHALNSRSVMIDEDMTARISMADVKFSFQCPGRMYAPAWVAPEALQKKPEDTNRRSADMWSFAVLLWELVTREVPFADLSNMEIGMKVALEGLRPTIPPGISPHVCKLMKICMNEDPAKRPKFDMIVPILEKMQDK

[4] = biological target: T3, Serine/threonine-protein kinase NLK (Homo sapiens, UniProt Q9UBE8)
T3 sequence (Q9UBE8 whole entry): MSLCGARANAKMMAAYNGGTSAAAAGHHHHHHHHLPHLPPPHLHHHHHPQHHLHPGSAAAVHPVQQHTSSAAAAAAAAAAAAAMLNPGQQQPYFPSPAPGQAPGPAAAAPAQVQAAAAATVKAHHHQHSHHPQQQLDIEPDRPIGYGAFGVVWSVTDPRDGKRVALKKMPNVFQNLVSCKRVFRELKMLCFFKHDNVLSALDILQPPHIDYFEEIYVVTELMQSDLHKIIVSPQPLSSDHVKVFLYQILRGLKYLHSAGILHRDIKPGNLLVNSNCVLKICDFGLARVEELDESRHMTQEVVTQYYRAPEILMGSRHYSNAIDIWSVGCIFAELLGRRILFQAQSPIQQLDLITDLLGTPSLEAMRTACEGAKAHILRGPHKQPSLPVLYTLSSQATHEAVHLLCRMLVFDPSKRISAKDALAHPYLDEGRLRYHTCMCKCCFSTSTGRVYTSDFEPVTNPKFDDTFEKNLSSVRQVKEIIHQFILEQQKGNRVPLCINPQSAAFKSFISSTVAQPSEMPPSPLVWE

[5] = biological target: T4, Serine/threonine-protein kinase A-Raf (Homo sapiens, UniProt P10398)
T4 sequence (P10398 whole entry): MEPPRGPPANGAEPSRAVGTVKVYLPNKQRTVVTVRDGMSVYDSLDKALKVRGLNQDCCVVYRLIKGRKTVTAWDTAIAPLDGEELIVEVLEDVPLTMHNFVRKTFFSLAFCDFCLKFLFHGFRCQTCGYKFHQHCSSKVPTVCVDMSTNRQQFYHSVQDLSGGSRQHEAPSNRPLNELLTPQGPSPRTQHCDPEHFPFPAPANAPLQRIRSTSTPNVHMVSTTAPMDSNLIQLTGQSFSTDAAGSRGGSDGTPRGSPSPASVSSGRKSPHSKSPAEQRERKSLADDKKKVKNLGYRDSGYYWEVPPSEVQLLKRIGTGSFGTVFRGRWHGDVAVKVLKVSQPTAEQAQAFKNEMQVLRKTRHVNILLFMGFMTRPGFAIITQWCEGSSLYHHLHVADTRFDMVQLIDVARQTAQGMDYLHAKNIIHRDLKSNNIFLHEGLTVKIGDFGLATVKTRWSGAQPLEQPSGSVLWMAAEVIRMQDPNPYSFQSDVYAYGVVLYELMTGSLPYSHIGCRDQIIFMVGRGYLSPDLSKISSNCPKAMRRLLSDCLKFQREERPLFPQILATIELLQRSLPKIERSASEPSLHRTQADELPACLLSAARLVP
Also: in the data inactive means no Kd found up to 30 µM.

Chain of Protein-tyrosine kinase 2-beta (Q14289 whole entry): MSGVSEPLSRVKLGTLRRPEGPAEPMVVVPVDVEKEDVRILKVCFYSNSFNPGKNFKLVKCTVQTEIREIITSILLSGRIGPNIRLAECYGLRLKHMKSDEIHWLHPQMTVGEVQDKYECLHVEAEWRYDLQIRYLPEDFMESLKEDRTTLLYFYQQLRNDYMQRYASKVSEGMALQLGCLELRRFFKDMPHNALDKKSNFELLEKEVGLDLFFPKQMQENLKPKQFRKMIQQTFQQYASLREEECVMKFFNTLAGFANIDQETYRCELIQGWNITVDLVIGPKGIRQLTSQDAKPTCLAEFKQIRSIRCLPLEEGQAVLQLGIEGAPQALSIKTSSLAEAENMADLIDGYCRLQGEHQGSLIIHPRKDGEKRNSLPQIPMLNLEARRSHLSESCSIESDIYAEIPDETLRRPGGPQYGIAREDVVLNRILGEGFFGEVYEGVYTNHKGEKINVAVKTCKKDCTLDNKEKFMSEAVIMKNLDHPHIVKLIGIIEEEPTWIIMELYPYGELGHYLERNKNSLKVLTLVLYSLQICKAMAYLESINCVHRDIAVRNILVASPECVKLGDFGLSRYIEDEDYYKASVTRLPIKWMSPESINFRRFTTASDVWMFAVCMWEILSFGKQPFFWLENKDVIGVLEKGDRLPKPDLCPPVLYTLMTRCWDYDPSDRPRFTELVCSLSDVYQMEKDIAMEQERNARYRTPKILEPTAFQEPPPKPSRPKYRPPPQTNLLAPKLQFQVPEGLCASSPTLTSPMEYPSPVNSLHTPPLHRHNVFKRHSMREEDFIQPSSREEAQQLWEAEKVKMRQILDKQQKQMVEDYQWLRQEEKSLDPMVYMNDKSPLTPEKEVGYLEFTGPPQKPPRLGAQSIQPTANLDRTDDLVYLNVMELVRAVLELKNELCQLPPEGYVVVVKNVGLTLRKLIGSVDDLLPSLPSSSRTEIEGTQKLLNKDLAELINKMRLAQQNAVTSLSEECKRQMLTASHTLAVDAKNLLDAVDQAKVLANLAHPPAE

Kd [1] | Kd [2] | Kd [3] | Kd (Scaffold protein ILK) | Kd [4] | Kd [5] | Compound
> 30 µM (inactive) | > 30 µM (inactive) | > 30 µM (inactive) | > 30 µM (inactive) | > 30 µM (inactive) | > 30 µM (inactive) | OCCn1cc(-c2cnc3nnn(Cc4ccc5ncccc5c4)c3n2)cn1 [PF-04217903]
> 30 µM (inactive) | > 30 µM (inactive) | > 30 µM (inactive) | > 30 µM (inactive) | 0.027 µM | > 30 µM (inactive) | O=C(Nc1ccc(-c2ccnc(Nc3ccc(N4CCOCC4)cc3)n2)cc1)C1CCCN1 (configuration not stated) [XL-019]
> 30 µM (inactive) | > 30 µM (inactive) | > 30 µM (inactive) | > 30 µM (inactive) | > 30 µM (inactive) | > 30 µM (inactive) | Cc1cc(Nc2cc(N3CCN(C)CC3)nc(/C=C/c3ccccc3)n2)n[nH]1 [ENMD-2076]
> 30 µM (inactive) | > 30 µM (inactive) | > 30 µM (inactive) | > 30 µM (inactive) | > 30 µM (inactive) | > 30 µM (inactive) | COc1ccc(-c2ccc3c(N4CCOC[C@@H]4C)nc(N4CCOC[C@@H]4C)nc3n2)cc1CO [AZD-8055]
> 30 µM (inactive) | > 30 µM (inactive) | > 30 µM (inactive) | > 30 µM (inactive) | > 30 µM (inactive) | > 30 µM (inactive) | Cn1cc(-c2ccc(F)c(C(F)(F)F)c2)nc1C1CCN(c2ncnc3[nH]ncc23)CC1 [LY-2584702]
> 30 µM (inactive) | > 30 µM (inactive) | > 30 µM (inactive) | > 30 µM (inactive) | > 30 µM (inactive) | > 30 µM (inactive) | COc1cc(CCc2cc(NC(=O)c3ccc(N4C[C@@H](C)N[C@@H](C)C4)cc3)n[nH]2)cc(OC)c1 [AZD-4547]
> 30 µM (inactive) | > 30 µM (inactive) | > 30 µM (inactive) | > 30 µM (inactive) | > 30 µM (inactive) | > 30 µM (inactive) | CNC(=O)c1ccc(C)c(-n2c(C)cc(OCc3ccc(F)cc3F)c(Br)c2=O)c1 [PH-797804]
> 30 µM (inactive) | > 30 µM (inactive) | > 30 µM (inactive) | > 30 µM (inactive) | > 30 µM (inactive) | > 30 µM (inactive) | CCN1CCN(Cc2ccc(-c3cc4c(N[C@H](C)c5ccccc5)ncnc4[nH]3)cc2)CC1 [AEE-788]

Second part, the molecule before the results:

Compound | Kd [1] | Kd [2] | Kd [3] | Kd (Scaffold protein ILK) | Kd [4] | Kd [5]
Cc1ccc(-n2nc(C(C)(C)C)cc2NC(=O)NCc2cc(F)ccc2Oc2ccc3c(cnn3CCO)c2)cc1 [PEXMETINIB] | 30.4 µM (active) | > 30 µM (inactive) | > 30 µM (inactive) | > 30 µM (inactive) | > 30 µM (inactive) | > 30 µM (inactive)
CC(=O)Nc1cccc(-n2c(=O)n(C3CC3)c(=O)c3c(Nc4ccc(I)cc4F)n(C)c(=O)c(C)c32)c1 [TRAMETINIB] | > 30 µM (inactive) | > 30 µM (inactive) | > 30 µM (inactive) | > 30 µM (inactive) | > 30 µM (inactive) | > 30 µM (inactive)
COC(=O)N[C@@H](C)CNc1nccc(-c2cn(C(C)C)nc2-c2cc(Cl)cc(NS(C)(=O)=O)c2F)n1 [ENCORAFENIB] | > 30 µM (inactive) | > 30 µM (inactive) | > 30 µM (inactive) | > 30 µM (inactive) | 0.732 µM (active) | > 30 µM (inactive)
CCn1c(=O)c(-c2cc[nH]n2)cc2c(C)nc(N)nc21 [VOXTALISIB] | > 30 µM (inactive) | > 30 µM (inactive) | > 30 µM (inactive) | > 30 µM (inactive) | > 30 µM (inactive) | > 30 µM (inactive)
Cc1ccc(NC(=O)c2ccc(CN3CC[C@H](N(C)C)C3)c(C(F)(F)F)c2)cc1Nc1nccc(-c2cncnc2)n1 [BAFETINIB] | > 30 µM (inactive) | > 30 µM (inactive) | > 30 µM (inactive) | > 30 µM (inactive) | > 30 µM (inactive) | 2.89 µM (active)
N[C@@H]1CCCN(c2c(/C=C3\SC(=O)NC3=O)cccc2-c2ccccc2)C1 | > 30 µM (inactive) | > 30 µM (inactive) | > 30 µM (inactive) | > 30 µM (inactive) | > 30 µM (inactive) | > 30 µM (inactive)
CNC(=O)CN1CCC(Oc2cc3c(Nc4cccc(Cl)c4F)ncnc3cc2OC)CC1 [SAPITINIB] | > 30 µM (inactive) | > 30 µM (inactive) | > 30 µM (inactive) | > 30 µM (inactive) | > 30 µM (inactive) | > 30 µM (inactive)
CNC(=O)c1cc(Oc2ccc(NC(=O)Nc3ccc(Cl)c(C(F)(F)F)c3)c(F)c2)ccn1 [REGORAFENIB] | > 30 µM (inactive) | > 30 µM (inactive) | > 30 µM (inactive) | > 30 µM (inactive) | > 30 µM (inactive) | > 30 µM (inactive)
COCCNCc1ccc(-c2cc3nccc(Oc4ccc(NC(=S)NC(=O)Cc5ccc(F)cc5)cc4F)c3s2)nc1 [GLESATINIB] | > 30 µM (inactive) | > 30 µM (inactive) | > 30 µM (inactive) | > 30 µM (inactive) | > 30 µM (inactive) | > 30 µM (inactive)
CN1CC[C@@H](c2c(O)cc(O)c3c(=O)cc(-c4ccccc4Cl)oc23)[C@@H]1CO | > 30 µM (inactive) | > 30 µM (inactive) | > 30 µM (inactive) | > 30 µM (inactive) | 1.48 µM | > 30 µM (inactive)
COc1cc(OC)c(/C=C/S(=O)(=O)Cc2ccc(OC)c(NCC(=O)O)c2)c(OC)c1 [RIGOSERTIB] | > 30 µM (inactive) | > 30 µM (inactive) | > 30 µM (inactive) | > 30 µM (inactive) | > 30 µM (inactive) | > 30 µM (inactive)
CNC(=O)c1ccc(-c2cnc3ncc(Cc4ccc5ncccc5c4)n3n2)cc1F [CAPMATINIB] | > 30 µM (inactive) | > 30 µM (inactive) | > 30 µM (inactive) | > 30 µM (inactive) | > 30 µM (inactive) | > 30 µM (inactive)
CC[C@@H]1C(=O)N(C)c2cnc(Nc3ccc(C(=O)N[C@H]4CC[C@H](N5CCN(CC6CC6)CC5)CC4)cc3OC)nc2N1C(C)C [VOLASERTIB] | > 30 µM (inactive) | > 30 µM (inactive) | > 30 µM (inactive) | > 30 µM (inactive) | > 30 µM (inactive) | > 30 µM (inactive)
CN1CCC(COc2cnc(-c3cccc(Cn4nc(-c5cccc(C#N)c5)ccc4=O)c3)nc2)CC1 [TEPOTINIB] | > 30 µM (inactive) | > 30 µM (inactive) | > 30 µM (inactive) | > 30 µM (inactive) | > 30 µM (inactive) | > 30 µM (inactive)
